Reference: paper PMC8309005, “Novel Non-Congeneric Derivatives of the Choline Kinase Alpha Inhibitor ICL-CCIC-0019” (Pharmaceutics, 2021)
Where two headings read alike, the source gives them in different places.

What was measured:
PI3K a = PI3K a (Homo sapiens, UniProt P42336); assay: Lipid kinase screening (ADP-Glo), PI3K a; type: biochemical
Experimental: (§1) The lipid kinase screening for ICL-CCIC-0019, CK14, CK145 (5), CK146 (4) and CK147 (8) (testing concentration for all compounds: 10 μM) was performed by MRC PPU International Centre for Kinase Profiling (Dundee, UK). The lipid kinase screening panel includes 15 human recombinant lipid kinases and the tests used Promega ADP Glo^TM High Throughput Assay kit (Promega, Southampton, UK). For each assay, reference compounds were used as quality control. Finally, mean percentage activity inhibited by compounds and standard deviation for all the repeats were calculated.

PI3K b = PI3K b (Homo sapiens, UniProt P42338); assay: Lipid kinase screening (ADP-Glo), PI3K b; type: biochemical
Experimental: as §1

PI3K g = PI3K g (Homo sapiens, UniProt P48736); assay: Lipid kinase screening (ADP-Glo), PI3K g; type: biochemical
Experimental: as §1

PI3Ka E545K + p85 = PI3Ka E545K + p85 (Homo sapiens, UniProt P42336, E545K); assay: Lipid kinase screening (ADP-Glo), PI3Ka E545K + p85; type: biochemical
Experimental: as §1

PI3Ka E524K + p85 = assay: Lipid kinase screening (ADP-Glo), PI3Ka E524K + p85; type: biochemical, human; settings: 10 μM
Experimental: as §1

PIP5K2A = molecular target: T1, PIP5K2A (Homo sapiens, UniProt P48426); assay: Lipid kinase screening (ADP-Glo), PIP5K2A; type: biochemical
T1 sequence (P48426 1-406): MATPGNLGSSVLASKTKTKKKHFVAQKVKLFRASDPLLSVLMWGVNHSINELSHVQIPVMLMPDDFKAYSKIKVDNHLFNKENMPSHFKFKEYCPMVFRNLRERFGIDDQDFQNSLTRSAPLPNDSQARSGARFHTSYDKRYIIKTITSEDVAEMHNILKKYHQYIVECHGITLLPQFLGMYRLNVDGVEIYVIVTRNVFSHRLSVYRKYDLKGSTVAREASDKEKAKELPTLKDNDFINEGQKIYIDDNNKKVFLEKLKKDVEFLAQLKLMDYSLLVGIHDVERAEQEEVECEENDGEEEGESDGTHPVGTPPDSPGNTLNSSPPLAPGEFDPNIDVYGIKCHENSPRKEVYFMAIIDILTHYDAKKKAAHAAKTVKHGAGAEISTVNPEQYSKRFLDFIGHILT
Experimental: as §1

SPHK1 = SPHK1 (Homo sapiens, UniProt Q9NYA1); assay: Lipid kinase screening (ADP-Glo), SPHK1; type: biochemical
Experimental: as §1

SPHK2 = molecular target: T2, SPHK2 (Homo sapiens, UniProt Q9NRA0); assay: Lipid kinase screening (ADP-Glo), SPHK2; type: biochemical
T2 sequence (Q9NRA0 1-654): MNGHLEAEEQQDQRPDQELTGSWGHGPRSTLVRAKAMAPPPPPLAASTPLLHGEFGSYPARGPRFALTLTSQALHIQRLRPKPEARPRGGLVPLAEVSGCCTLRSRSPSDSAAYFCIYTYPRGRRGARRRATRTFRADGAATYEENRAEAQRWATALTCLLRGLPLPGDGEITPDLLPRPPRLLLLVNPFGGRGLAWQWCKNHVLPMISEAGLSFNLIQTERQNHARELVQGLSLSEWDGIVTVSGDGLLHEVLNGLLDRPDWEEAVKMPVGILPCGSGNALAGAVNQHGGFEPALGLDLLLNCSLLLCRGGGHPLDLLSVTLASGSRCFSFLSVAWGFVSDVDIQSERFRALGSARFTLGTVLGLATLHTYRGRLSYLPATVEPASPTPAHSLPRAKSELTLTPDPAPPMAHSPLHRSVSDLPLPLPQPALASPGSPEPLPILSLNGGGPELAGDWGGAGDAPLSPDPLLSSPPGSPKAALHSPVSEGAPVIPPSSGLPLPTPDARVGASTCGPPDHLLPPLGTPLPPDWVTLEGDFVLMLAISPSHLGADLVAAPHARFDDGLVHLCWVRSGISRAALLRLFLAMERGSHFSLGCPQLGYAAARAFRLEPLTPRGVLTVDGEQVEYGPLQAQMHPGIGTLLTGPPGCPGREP
Experimental: as §1

CHK a (CHKA) = CHK a (CHKA) (Homo sapiens, UniProt P35790); assay: Lipid kinase screening (ADP-Glo), CHKA; type: biochemical
Experimental: as §1

DGK b = DGK b (Homo sapiens, UniProt Q9Y6T7); assay: Lipid kinase screening (ADP-Glo), DGK b; type: biochemical
Experimental: as §1

[1] = molecular target: phosphatidylinositol 4-kinase beta (PIK4CB) (Homo sapiens, UniProt Q9UBF8); assay: Lipid kinase screening (ADP-Glo), PIK4CB; type: biochemical
Experimental: as §1

DGK g = DGK g (Homo sapiens, UniProt P49619); assay: Lipid kinase screening (ADP-Glo), DGK g; type: biochemical
Experimental: as §1

DGK z = DGK z (Homo sapiens, UniProt Q13574); assay: Lipid kinase screening (ADP-Glo), DGK z; type: biochemical
Experimental: as §1

PI4K2a = PI4K2a (Homo sapiens, UniProt Q9BTU6); assay: Lipid kinase screening (ADP-Glo), PI4K2a; type: biochemical
Experimental: as §1

CHK b (CHKB) = CHK b (CHKB) (Homo sapiens, UniProt Q9Y259); assay: Lipid kinase screening (ADP-Glo), CHKB; type: biochemical
Experimental: as §1

Kinetic solubility assay = type: physicochemical; settings: aqueous buffer, kinetic from dmso stock
Experimental: (§2) The ADME study for ICL-CCIC-0019, CK14, CK145 (5), CK146 (4) and CK147 (8) was performed by Charles River Drug Discovery Services (Essex, UK).
(§3) The predicted in vitro pharmacokinetic characteristics of compounds were evaluated by four ADME assays, namely kinetic solubility assay, metabolic stability assay using human liver microsome S9, permeability and efflux study using the Caco-2 cell line, and matrix stability assay using fasted state simulated gastric fluid (FaSSGF). All tested CHKA inhibitors were highly soluble (>150 μM) in 0.1 M PBS (2% DMSO) (Table 1). […] The in vivo clearance was calculated to predict the actual clearance in humans by scaling the clearance values, which takes into account liver weight, microsomes per liver and liver blood flow. […] In Caco-2 cell permeability assay, drug permeability was investigated and presented as apparent permeability coefficients (Papp) in A to B (A-B, apical to basolateral direction) and B to A (B-A, basolateral to apical direction).

[2] = Human microsomal metabolic stability assay; type: in vitro ADME
Experimental: as §2, §3

[3] = Caco-2 permeability and efflux study; type: in vitro ADME, human
Experimental: as §2, §3

[4] = Matrix stability assay in fasted state simulated gastric fluid (FaSSGF); type: in vitro ADME; settings: for half-life: pH 1.6
Experimental: as §2, §3

[5] = test system: [18F]D4-FCH uptake in C4-2B cells; assay: [18F]D4-FCH uptake in vitro study, C4-2B; type: cell-based; settings: Homo sapiens
Experimental: HCT-116 and C4-2B cells were seeded at a density of 5 × 10^5 cells per well into 6-well plates and incubated overnight. Cells were treated with 1 or 10 µM CHKA inhibitors (CK14, CK145, CK146 and CK147) for 1 h and pulsed with [^18F]D4-FCH (740 kBq) in presence of inhibitors in 1 mL for an additional hour at 37 °C. Cells were washed with ice-cold PBS three times and lysed in 1 mL RIPA buffer. The radioactivity of 800 µL lysate from each well was counted on a gamma counter (Perkin Elmer, Beaconsfield, UK) and normalized to protein content as determined by BCA assay.

[6] = test system: Δ49N CHKA2 (recombinant CHKA2); settings: read-out: IC50 against recombinant CHKA2; cited from earlier work
HCT-116 = settings: cited from earlier work
A549 = settings: cited from earlier work
Caco-2 cell line = assay: Caco-2 permeability and efflux study; type: in vitro ADME, human; settings: Caco-2
Experimental: as §2, §3

[7] = Conjugate stability test of CK147 in medium (HPLC); type: physicochemical; settings: up to 72 h
Experimental: To assess stability of CK147 in medium, 5 mL of medium containing 10% FCS and 1% L-glutamine was added sterilely to a six-well plate. Next, 1.7 μL of 300 mM CK147 in DMSO or 1.7 μL DMSO was added into wells and the plate was gently shaken for 5 s before being incubated at 37 °C in a humidified atmosphere containing 5% CO2. After 0, 2, 4, 6, 24, 48 and 72 h, 200 μL aliquots of medium from each well were transferred into a 1.5-mL tube containing 198.4 μL acetonitrile and 1.6 μL of 2.5 mg/mL ICL-CCIC-0019 as an internal standard (IS) […]. […] One hundred microliters of the solution were injected into the HPLC system described in Supplementary HPLC method D. Three repeats were performed for each sample.

[8] = test system: C4-2B prostate cancer cells; assay: Cellular uptake and metabolism study in C4-2B with or without serum (HPLC); settings: 50 μM, 4 h
Experimental: Cell lysate sample preparation: C4-2B prostate cancer cells were seeded into cell culture dishes (150 × 25 mm) at a density of 7 × 10^6 per dish. The cells were allowed to settle and grow for another 48 h. The cells were treated with ICL-CCIC-0019, CK146, CK147 and CK148 (50 μM of 7 mL RPMI medium with or without 10% FCS) for 4 h in the incubator. After 4-h incubation, the aliquots of medium were collected (see the medium sample preparation section). Cells were scraped, washed with ice-cold PBS three times and collected by centrifugation (4 °C, 4000× g). The cell pellets were resuspended in 500 μL of chilled acetonitrile:PBS (50:50, v/v) for cell disruption and homogenization. The cell disruption was performed by a Precellys® 24 homogenizer (Bertin Technologies, Montigny-le-Bretonneux, France) at 4 °C. After acetonitrile evaporation at room temperature, 50 μL of cell lysis was taken for protein analysis. Another 100 μL of the supernatant obtained after centrifuge (4 °C, 15,000× g) was resuspended in 100 μL formic acid:water (0.2%, v/v). Next, 100 μL of the filtered solution was analyzed by HPLC system described in Supplementary HPLC method D. Three injections were performed for each sample. Intracellular drug was normalized to cellular protein of each plate using BCA assay. Medium sample preparation for HPLC analysis: 250-μL aliquots of medium (with or without 10% FCS) were transferred into 1.5-mL tube containing 250 μL acetonitrile. After a brief vortex, the tube was placed at 4 °C for 30 min for protein precipitation. One hundred microliters of the resulting supernatant from centrifuge (4 °C, 15,000× g) were resuspended in 100 μL formic acid: water (0.2%, v/v). One hundred microliters of the filtered sample were analyzed by HPLC system described in Supplementary HPLC method D. Three injections were performed for each sample.

Sequence of CHK b (CHKB) (Q9Y259 whole entry): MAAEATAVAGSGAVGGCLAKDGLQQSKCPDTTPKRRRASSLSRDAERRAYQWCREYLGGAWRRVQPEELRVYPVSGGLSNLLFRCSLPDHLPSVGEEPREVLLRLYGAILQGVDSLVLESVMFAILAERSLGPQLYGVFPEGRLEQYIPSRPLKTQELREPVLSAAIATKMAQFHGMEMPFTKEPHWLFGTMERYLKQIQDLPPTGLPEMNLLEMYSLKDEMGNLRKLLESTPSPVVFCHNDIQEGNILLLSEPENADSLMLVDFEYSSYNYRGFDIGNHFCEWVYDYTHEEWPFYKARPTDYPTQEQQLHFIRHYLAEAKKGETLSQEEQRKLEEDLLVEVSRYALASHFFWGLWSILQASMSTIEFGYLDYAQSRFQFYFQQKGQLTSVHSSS
Sequence of PI3K a (P42336 whole entry): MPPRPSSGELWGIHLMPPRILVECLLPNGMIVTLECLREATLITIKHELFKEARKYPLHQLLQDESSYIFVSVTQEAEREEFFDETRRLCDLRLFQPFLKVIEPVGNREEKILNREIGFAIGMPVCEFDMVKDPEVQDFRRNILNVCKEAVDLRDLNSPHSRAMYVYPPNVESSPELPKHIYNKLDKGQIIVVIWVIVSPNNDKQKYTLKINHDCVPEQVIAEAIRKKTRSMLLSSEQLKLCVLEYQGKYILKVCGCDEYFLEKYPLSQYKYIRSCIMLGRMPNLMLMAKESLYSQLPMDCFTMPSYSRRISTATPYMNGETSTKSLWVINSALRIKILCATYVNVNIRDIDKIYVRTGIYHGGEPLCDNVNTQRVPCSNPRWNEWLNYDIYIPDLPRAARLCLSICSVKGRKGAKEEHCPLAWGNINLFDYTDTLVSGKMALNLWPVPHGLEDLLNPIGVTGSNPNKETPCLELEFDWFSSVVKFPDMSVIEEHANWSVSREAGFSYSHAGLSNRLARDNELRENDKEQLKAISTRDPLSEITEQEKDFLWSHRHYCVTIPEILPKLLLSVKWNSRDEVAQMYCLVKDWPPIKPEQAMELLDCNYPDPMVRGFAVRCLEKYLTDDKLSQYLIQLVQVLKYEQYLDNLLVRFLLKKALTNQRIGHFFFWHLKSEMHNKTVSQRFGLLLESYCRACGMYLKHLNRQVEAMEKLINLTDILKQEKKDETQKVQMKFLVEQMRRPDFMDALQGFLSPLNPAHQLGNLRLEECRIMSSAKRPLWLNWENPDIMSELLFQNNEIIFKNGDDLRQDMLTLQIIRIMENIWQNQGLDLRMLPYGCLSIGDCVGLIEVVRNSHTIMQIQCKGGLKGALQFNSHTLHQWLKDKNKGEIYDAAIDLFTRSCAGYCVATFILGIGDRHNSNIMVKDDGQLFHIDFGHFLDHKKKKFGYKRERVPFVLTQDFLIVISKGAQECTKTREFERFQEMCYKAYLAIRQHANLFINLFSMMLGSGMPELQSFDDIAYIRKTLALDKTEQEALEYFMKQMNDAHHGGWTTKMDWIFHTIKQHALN
Sequence of PI3K a (P27986 whole entry partner): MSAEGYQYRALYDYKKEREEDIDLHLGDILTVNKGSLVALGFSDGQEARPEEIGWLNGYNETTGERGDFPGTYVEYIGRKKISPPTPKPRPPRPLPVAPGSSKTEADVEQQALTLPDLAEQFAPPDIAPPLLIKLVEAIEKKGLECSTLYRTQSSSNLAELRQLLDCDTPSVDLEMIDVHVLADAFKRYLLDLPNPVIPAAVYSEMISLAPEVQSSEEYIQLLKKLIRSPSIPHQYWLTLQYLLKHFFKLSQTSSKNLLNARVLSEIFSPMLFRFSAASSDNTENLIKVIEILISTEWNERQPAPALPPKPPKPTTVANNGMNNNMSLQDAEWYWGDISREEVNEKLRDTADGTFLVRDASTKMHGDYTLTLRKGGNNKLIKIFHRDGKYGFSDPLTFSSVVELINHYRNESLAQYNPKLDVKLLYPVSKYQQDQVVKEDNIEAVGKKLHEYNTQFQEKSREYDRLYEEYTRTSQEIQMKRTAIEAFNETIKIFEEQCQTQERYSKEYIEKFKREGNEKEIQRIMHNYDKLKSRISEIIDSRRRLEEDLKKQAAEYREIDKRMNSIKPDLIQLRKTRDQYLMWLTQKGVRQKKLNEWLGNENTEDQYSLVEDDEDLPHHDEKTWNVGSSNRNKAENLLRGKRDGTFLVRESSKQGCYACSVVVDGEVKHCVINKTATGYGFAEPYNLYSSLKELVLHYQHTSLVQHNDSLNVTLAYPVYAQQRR
Sequence of CHK a (CHKA) (P35790 whole entry): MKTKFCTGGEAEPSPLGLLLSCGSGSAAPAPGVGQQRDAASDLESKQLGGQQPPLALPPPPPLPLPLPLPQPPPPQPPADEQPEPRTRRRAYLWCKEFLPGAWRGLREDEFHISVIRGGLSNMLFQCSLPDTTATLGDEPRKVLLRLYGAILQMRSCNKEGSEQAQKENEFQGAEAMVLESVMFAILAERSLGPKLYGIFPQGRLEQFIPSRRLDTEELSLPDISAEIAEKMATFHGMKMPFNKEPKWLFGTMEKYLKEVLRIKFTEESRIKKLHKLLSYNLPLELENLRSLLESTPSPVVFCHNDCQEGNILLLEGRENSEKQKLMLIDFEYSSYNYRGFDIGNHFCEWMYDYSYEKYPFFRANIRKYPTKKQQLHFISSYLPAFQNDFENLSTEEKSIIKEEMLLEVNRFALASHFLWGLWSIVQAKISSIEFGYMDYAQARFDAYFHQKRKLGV
Sequence of DGK g (P49619 whole entry): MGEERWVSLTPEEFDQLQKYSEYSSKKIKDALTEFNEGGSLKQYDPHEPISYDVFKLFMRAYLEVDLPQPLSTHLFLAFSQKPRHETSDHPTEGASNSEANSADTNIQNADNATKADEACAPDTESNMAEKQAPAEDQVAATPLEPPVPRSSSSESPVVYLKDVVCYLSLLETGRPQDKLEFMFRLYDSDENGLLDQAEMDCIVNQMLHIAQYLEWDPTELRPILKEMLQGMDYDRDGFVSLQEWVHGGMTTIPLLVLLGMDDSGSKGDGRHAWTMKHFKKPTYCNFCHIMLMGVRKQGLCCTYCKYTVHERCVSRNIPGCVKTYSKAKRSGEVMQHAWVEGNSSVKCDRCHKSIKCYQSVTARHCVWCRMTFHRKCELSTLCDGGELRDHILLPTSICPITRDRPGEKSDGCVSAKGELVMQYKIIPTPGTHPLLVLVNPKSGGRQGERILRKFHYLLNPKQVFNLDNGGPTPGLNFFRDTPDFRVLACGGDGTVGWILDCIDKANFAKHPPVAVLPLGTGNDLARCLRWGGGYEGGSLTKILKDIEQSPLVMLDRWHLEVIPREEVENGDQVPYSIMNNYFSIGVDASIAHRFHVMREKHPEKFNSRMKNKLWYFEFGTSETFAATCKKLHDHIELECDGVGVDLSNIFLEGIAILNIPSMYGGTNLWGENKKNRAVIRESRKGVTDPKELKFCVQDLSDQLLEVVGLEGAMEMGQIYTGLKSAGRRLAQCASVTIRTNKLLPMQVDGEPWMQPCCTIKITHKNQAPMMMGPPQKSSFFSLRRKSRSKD
Sequence of DGK z (Q13574 whole entry): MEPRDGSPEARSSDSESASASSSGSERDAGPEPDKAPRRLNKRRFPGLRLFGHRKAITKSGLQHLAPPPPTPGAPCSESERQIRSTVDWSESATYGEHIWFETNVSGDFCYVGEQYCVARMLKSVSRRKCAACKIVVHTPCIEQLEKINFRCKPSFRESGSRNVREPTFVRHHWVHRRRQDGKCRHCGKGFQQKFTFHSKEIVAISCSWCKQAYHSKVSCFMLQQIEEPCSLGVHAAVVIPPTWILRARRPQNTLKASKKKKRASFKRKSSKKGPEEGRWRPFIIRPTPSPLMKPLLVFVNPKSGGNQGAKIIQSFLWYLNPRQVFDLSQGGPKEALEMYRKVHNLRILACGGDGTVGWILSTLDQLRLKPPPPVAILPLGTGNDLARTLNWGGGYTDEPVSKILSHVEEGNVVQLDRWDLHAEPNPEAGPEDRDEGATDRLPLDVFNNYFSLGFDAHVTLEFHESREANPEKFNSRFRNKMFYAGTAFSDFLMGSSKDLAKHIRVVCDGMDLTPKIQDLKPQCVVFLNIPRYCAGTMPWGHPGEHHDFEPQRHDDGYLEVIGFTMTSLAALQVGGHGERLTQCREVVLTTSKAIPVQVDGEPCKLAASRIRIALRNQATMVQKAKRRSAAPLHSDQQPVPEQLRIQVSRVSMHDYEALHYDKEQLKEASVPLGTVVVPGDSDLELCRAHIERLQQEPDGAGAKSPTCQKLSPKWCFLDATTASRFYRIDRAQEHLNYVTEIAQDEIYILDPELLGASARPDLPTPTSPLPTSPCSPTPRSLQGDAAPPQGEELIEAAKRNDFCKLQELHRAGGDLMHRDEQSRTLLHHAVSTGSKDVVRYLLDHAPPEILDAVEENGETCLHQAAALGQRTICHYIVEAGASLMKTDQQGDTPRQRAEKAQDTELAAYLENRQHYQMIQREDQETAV
Sequence of PI4K2a (Q9BTU6 whole entry): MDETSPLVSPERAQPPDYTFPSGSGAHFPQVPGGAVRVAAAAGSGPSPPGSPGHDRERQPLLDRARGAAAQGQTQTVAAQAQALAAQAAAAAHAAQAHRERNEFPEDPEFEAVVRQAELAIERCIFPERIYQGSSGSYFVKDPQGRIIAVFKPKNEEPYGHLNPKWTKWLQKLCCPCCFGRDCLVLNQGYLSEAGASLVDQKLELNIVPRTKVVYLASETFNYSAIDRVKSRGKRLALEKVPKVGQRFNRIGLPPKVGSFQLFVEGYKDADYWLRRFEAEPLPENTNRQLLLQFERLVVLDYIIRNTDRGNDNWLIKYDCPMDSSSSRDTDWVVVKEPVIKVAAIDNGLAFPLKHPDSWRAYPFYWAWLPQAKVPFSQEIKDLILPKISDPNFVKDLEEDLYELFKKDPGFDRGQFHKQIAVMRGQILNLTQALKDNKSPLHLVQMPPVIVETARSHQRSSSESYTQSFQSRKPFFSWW
Sequence of PI3Ka E545K + p85 (P42336 whole entry E545K): as the sequence (P42336 whole entry) above, with E545K counted along it
Sequence of PI3Ka E545K + p85 (P27986 whole entry partner): as the sequence (P27986 whole entry partner) above

## CN(C)c1cc[n+](CCCCCCCCCCCCCC[n+]2ccc(N(C)C)cc2)cc1.[Br-].[Br-] [CK14, reference compound]
PI3K a
  inhibition at 10 µM: -1.9%
PI3K b
  inhibition at 10 µM: -36.2%
PI3K g
  inhibition at 10 µM: 16.4%
PI3Ka E545K + p85
  inhibition at 10 µM: -15.2%
PI3Ka E524K + p85
  % Inhibition PI3Ka E524K + p85: 1.6%
PIP5K2A
  inhibition at 10 µM: -2.7%
SPHK1
  inhibition at 10 µM: -10.1%
SPHK2
  inhibition at 10 µM: 16%
CHK a (CHKA)
  inhibition at 10 µM: 77%
DGK b
  inhibition at 10 µM: 11.9%
[1]
  inhibition at 10 µM: -4.1%
DGK g
  inhibition at 10 µM: 12.8%
DGK z
  inhibition at 10 µM: 4.7%
PI4K2a
  inhibition at 10 µM: -48.8%
CHK b (CHKB)
  inhibition at 10 µM: -33.7%
Kinetic solubility assay; 0.1 M PBS (2% DMSO), read-out: Kinetic Solubility: Solubility
  solubility kinetic: 154 µM
[2]; human
  PCT_LBF % (percentage of compound removed compared to liver blood flow): <45%
[2]; human liver microsome S9
  Human Microsomal Metabolic Stability: Remaining %: 101%
[2]; human, human liver microsome S9, human liver microsome S9, read-out: Human Microsomal Metabolic Stability: Clint
  microsomal CLint: < 14 µL/min/mg
[2]; human, human liver microsome S9, human liver microsome S9, read-out: Human Microsomal Metabolic Stability: Half-life
  half-life: > 1.67 h
[2]; scaled from microsomal clearance (liver weight, microsomes per liver, liver blood flow), human
  Predicted in vivo clearance: <10 mL/min/kg
[3]; human, Caco-2, read-out: Efflux ratio (Papp B-A/Papp A-B)
  efflux ratio: > 87
[3]; human, Caco-2, apical to basolateral, read-out: Papp A-B
  Papp A→B: < 0.1 ×10⁻⁶ cm/s
[3]; human, Caco-2, basolateral to apical, read-out: Papp B-A
  Papp B→A: 8.7 ×10⁻⁶ cm/s
[4]; FaSSGF
  Matrix Stability: Remaining %: 95%
[4]; fasted state simulated gastric fluid (FaSSGF), fasted state simulated gastric fluid, read-out: FaSSGF stability Half-life (converted)
  half-life: > 10 h
[5]; 1 μM, read-out: inhibition of [18F]D4-FCH uptake (mean of CK14, CK145 and CK146)
  inhibition at 1 µM: 46 ± 1%
[5]; 10 μM
  inhibition at 10 µM: 93 ± 5%
[6]
  IC50: 150 nM
HCT-116
  GI50: 290 nM
A549
  GI50: 330 nM

## CN(C)c1cc[n+](CCCCCCCCCCCCCC[n+]2ccc(N3CCN(C(=O)CSC4CC(=O)N(CCC(=O)NCCCCCC(=O)NCCCCC(NC(=O)NC(CCC(=O)O)C(=O)O)C(=O)O)C4=O)CC3)cc2)cc1 (centres unmarked) [CK147]
PI3K a
  inhibition at 10 µM: -2.6%
PI3K b
  inhibition at 10 µM: -0.1%
PI3K g
  inhibition at 10 µM: 2.1%
PI3Ka E545K + p85
  inhibition at 10 µM: 22.8%
PIP5K2A
  inhibition at 10 µM: -1.5%
SPHK1
  inhibition at 10 µM: -1%
SPHK2
  inhibition at 10 µM: -3.7%
CHK a (CHKA)
  inhibition at 10 µM: 13.1%
DGK b
  inhibition at 10 µM: -4.9%
[1]
  inhibition at 10 µM: 0.5%
DGK g
  inhibition at 10 µM: -6.5%
DGK z
  inhibition at 10 µM: 4.7%
PI4K2a
  inhibition at 10 µM: 10.4%
CHK b (CHKB)
  inhibition at 10 µM: 3.2%
Kinetic solubility assay
  solubility kinetic: 186 µM
[2]
  PCT_LBF % (percentage of compound removed compared to liver blood flow): <45%
  Predicted in vivo clearance: <10 mL/min/kg
[2]; human
  Human Microsomal Metabolic Stability: Remaining %: 105%
[2]; human, Human Microsomal Metabolic Stability: Clint
  microsomal CLint: < 14 µL/min/mg
[2]; human, liver microsomes, Human Microsomal Metabolic Stability: Half-life
  half-life: > 1.67 h
[3]; Caco-2
  Papp A→B: < 0.1 ×10⁻⁶ cm/s
  Papp B→A: < 0.1 ×10⁻⁶ cm/s
Caco-2 cell line
  Efflux ratio (Papp B-A/Papp A-B): too poor to permit calculation of the efflux ratio
[4]; simulated gi fluid
  Matrix Stability: Remaining %: 97%
  half-life: > 10 h
[7]
  chemical decomposition in medium by HPLC/MS (in words): Chemical decomposition was not detected

## CN(C)c1cc[n+](CCCCCCCCCCCCCC[n+]2ccc(N3CCN(C(=O)CSC4CC(=O)N(CCC(=O)NCCCCCC(=O)NCCCCC(NC(=O)NC(CCC(=O)OC(C)(C)C)C(=O)OC(C)(C)C)C(=O)OC(C)(C)C)C4=O)CC3)cc2)cc1 (centres unmarked) [CK148]
[8]; FCS positive and negative groups
  cellular uptake, mean ± SD of two experiment groups: 42.5 ± 11.5 % μg^−1 protein
[8]; both FCS groups
  detection in cell lysates by HPLC (in words): detected
